# Values quoted from earlier work as cited in patent US11529445B2, “Methods and apparatus for kidney dialysis and extracorporeal detoxification” (HIBAR Microsciences LLC, priority 2013, dated 2022).
# System: Connexin-43
# Details: cell culture models; concentrations commonly found among ESRD patients
smiles,measurement,value
Cc1ccc(O)cc1 [p-cresol],degradation of Connexin-43 within cardiac gap junctions,dose-dependent degradation of Connexin-43
